Results on 62 sequences are retold here after the OligoGym collection.

“And” between values parts separate entries of the source, which are not always exact repeats. Equal values may be shown once. After the bases stand the sugars from the 5' end (letter, count) and the backbone: PS all phosphorothioate, else s phosphorothioate and o phosphodiester by linkage. Methylation of C is not given here. e = 2'-O-(2-methoxyethyl) (MOE); k = constrained ethyl (cEt); d = 2'-deoxy (DNA)

The target of this data set is SOD1. The conditions noted are these: ASO.

Where the note is “HepG2, 3 µM”, “GGGCGATCCCAATTACA (sugars e3 k2 d7 k2 e3, PS)” came in with a target mRNA inhibition of 18%.

“GTCATTGAAACAGACAT (sugars e2 k2 d9 k2 e2, PS)” registered a target mRNA inhibition (HepG2, 5 µM) of 15%.

In the case of “GTCGCCATAACTCGCTAGGC (sugars e5 d10 e5, PS)”, the target mRNA inhibition (HepG2, 0.1875 µM) came to 10%; the target mRNA inhibition (HepG2, 0.75 µM) was 21%; the target mRNA inhibition (HepG2, 3 µM) is 39%; the target mRNA inhibition (HepG2, 4 µM) stood at 40%; the target mRNA inhibition (HepG2, 12 µM) was found to be 90%.

For the sequence “GTCGCCCTTCAGCACGC (sugars e3 k2 d7 k2 e3, PS)”, the target mRNA inhibition (HepG2, 3 µM) was 28%.

In the case of “GTCTGGCAAAATACAGG (sugars e3 k2 d7 k2 e3, PS)”, where the note is “HepG2, 3 µM”, the target mRNA inhibition came to 24%.

“GTGATTTAAGTCTGGCA (sugars e2 k2 d8 k2 e3, PS)” registered a target mRNA inhibition (HepG2, 5 µM) of 54%.

“GTGTGCGGCCAATGATGCAA (sugars e5 d10 e5, PS)”: for the setting “HepG2, 5 µM”, the target mRNA inhibition came to 15%.

Turning to “GTGTTTAATGTTTATC (sugars kekeddddddddekek, linkages s1 o3 s8 o1 s2)”, the target mRNA inhibition (A431, 0.12 µM) stood at 7%; the target mRNA inhibition (A431, 0.6 µM) is 35%; the target mRNA inhibition (A431, 3 µM) turned out to be 66%; the target mRNA inhibition (A431, 15 µM) turned out to be 78%; the target mRNA inhibition (HepG2, 0.222 µM) stood at 53%; the target mRNA inhibition (HepG2, 0.667 µM) worked out at 78%. Also, the target mRNA inhibition reads like this: (HepG2, 2 µM) 82%; (HepG2, 6 µM) 90%.

In the case of “GTGTTTAATGTTTATCA (sugars e3 k2 d7 k2 e3, PS)”, under “HepG2, 3 µM”, the target mRNA inhibition was determined as 37%.

“GTGTTTAATGTTTATCAGGA (sugars e5 d10 e5, PS)”: the target mRNA inhibition (HepG2, 0.1875 µM) turned out to be 18%; the target mRNA inhibition (HepG2, 0.75 µM) is 45%; the target mRNA inhibition (HepG2, 3 µM) was determined as 74%; the target mRNA inhibition (HepG2, 5 µM) is 73%; the target mRNA inhibition (HepG2, 12 µM) came out at 92%.

As to “GTTTAATGTTTATCAG (sugars kekeddddddddekek, linkages s1 o3 s8 o1 s2)”, the target mRNA inhibition runs as follows: (A431, 0.12 µM) 7%; (A431, 0.6 µM) 7%; (A431, 3 µM) 41%; (A431, 15 µM) 66%; (HepG2, 0.222 µM) 58%; (HepG2, 0.667 µM) 78%. In addition, the target mRNA inhibition amounted to 86% (HepG2, 2 µM) and 94% (HepG2, 6 µM).

Turning to “GTTTAATGTTTATCAGG (sugars e2 k2 d8 k2 e3, PS)”, the target mRNA inhibition is, setting by setting: (HepG2, 0.1875 µM) 55%; (HepG2, 0.75 µM) 78%; (HepG2, 3 µM) 87%; (HepG2, 5 µM) 87%; (HepG2, 12 µM) 93%.

For the sequence “GTTTATCAGGATACATT (sugars e2 k2 d8 k2 e3, PS)”, the target mRNA inhibition (HepG2, 0.1875 µM) came out at 41%; the target mRNA inhibition (HepG2, 0.75 µM) came to 73%; the target mRNA inhibition (HepG2, 3 µM) was 89%; the target mRNA inhibition (HepG2, 4 µM) worked out at 85%; the target mRNA inhibition (HepG2, 12 µM) is 92% and 95%.

Under “HepG2, 4 µM”, “TAACAGATGAGTTAAGG (sugars e2 k2 d8 k2 e3, PS)” yielded a target mRNA inhibition of 68%.

In the case of “TAACAGATGAGTTAAGG (sugars e2 k2 d9 k2 e2, PS)”, the target mRNA inhibition (HepG2, 0.1875 µM) was determined as 21%; the target mRNA inhibition (HepG2, 0.75 µM) amounted to 64%; the target mRNA inhibition (HepG2, 3 µM) is 85%; the target mRNA inhibition (HepG2, 4 µM) worked out at 80%; the target mRNA inhibition (HepG2, 12 µM) amounted to 96%.

For the sequence “TAACTGAGTTTTATAAAACT (sugars e5 d10 e5, PS)”, the target mRNA inhibition (HepG2, 5 µM) amounted to 0%.

On to “TAAGTCTGGCAAAATAC (sugars e2 k2 d8 k2 e3, PS)”, for which the target mRNA inhibition (HepG2, 5 µM) was 24%.

For “TAAGTCTGGCAAAATAC (sugars e2 k2 d9 k2 e2, PS)”, the target mRNA inhibition (HepG2, 5 µM) was found to be 46%.

For the sequence “TAAGTCTGGCAAAATAC (sugars e3 k2 d7 k2 e3, PS)”, the target mRNA inhibition (HepG2, 3 µM) is 4%.

The sequence “TAAGTGCCATACAGGGT (sugars e2 k2 d8 k2 e3, PS)” yielded a target mRNA inhibition (HepG2, 5 µM) of 26%.

Regarding “TAAGTGCCATACAGGGTTTT (sugars e5 d10 e5, PS)”, where the note is “HepG2, 5 µM”, the target mRNA inhibition was determined as 13%.

For “TAATGTTTATCAGGAT (sugars kekeddddddddekek, linkages s1 o3 s8 o1 s2)”, the target mRNA inhibition runs as follows: (A431, 0.12 µM) 0%; (A431, 0.6 µM) 15%; (A431, 3 µM) 17%; (A431, 15 µM) 48%.

“TACAGCTAGCAGGATAA (sugars e2 k2 d8 k2 e3, PS)”: the target mRNA inhibition (HepG2, 0.1875 µM) amounted to 35%; the target mRNA inhibition (HepG2, 0.75 µM) is 70%; the target mRNA inhibition (HepG2, 3 µM) amounted to 90%; the target mRNA inhibition (HepG2, 4 µM) was 85% and 77%; the target mRNA inhibition (HepG2, 12 µM) is 91% and 97%.

The sequence “TACAGGGTTTTTATTCA (sugars e2 k2 d9 k2 e2, PS)” displayed a target mRNA inhibition (HepG2, 5 µM) of 31%.

“TACAGTGTTTAATGTTT (sugars e3 k2 d7 k2 e3, PS)” had a target mRNA inhibition (HepG2, 3 µM) of 30%.

In the case of “TACAGTGTTTAATGTTTA (sugars e5 d8 e5, linkages s1 o3 s9 o2 s2)”, the target mRNA inhibition came to 3% (A431, 0.12 µM); 0% (A431, 0.6 µM); 1% (A431, 3 µM); 20% (A431, 15 µM); 13% (HepG2, 0.222 µM); 46% (HepG2, 0.667 µM). Moreover, the target mRNA inhibition (HepG2, 2 µM) was found to be 70% and the target mRNA inhibition (HepG2, 6 µM) worked out at 57%.

Turning to “TACATTTCTACAGCTA (sugars ekddddddddekekee, linkages s1 o1 s8 o3 s2)”, the target mRNA inhibition reads like this: (A431, 0.12 µM) 37%; (A431, 0.6 µM) 0%; (A431, 3 µM) 22%; (A431, 15 µM) 12%; (HepG2, 0.222 µM) 36%; (HepG2, 0.667 µM) 69%. Also, the target mRNA inhibition is, setting by setting: (HepG2, 2 µM) 83%; (HepG2, 6 µM) 95%.

Regarding “TACTTTCTTCATTTCCA (sugars e3 k2 d7 k2 e3, PS)”, the target mRNA inhibition (HepG2, 3 µM) was 18%.

In the case of “TATACAAATCTTCCAAG (sugars e3 k2 d7 k2 e3, PS)”, under “HepG2, 3 µM”, the target mRNA inhibition stood at 11%.

“TATAGGCCAGACCTCCGCGC (sugars e5 d10 e5, PS)”: for the setting “HepG2, 4 µM”, the target mRNA inhibition is 40%.

Take “TATCAGGATACATTTCTACA (sugars e5 d10 e5, PS)”: the target mRNA inhibition was 13% (HepG2, 0.1875 µM); 16% (HepG2, 0.75 µM); 48% (HepG2, 3 µM); 58% (HepG2, 5 µM); 81% (HepG2, 12 µM).

In turn, “TCACACAATTACACTTT (sugars e2 k2 d9 k2 e2, PS)” gave a target mRNA inhibition (HepG2, 5 µM) of 39%.

As to “TCAGCAGTCACATTGCCCAA (sugars e5 d10 e5, PS)”, the target mRNA inhibition (HepG2, 5 µM) was 52% and 42%.

Turning to “TCAGTTTCTCACTACAG (sugars e2 k2 d9 k2 e2, PS)”, the target mRNA inhibition (HepG2, 5 µM) worked out at 43%.

On to “TCATAAATCAGTTTCTCACT (sugars e5 d10 e5, PS)”, for which the target mRNA inhibition (HepG2, 5 µM) turned out to be 21%.

On to “TCATCCTTTGGCCCACC (sugars e3 k2 d7 k2 e3, PS)”, for which the target mRNA inhibition (HepG2, 3 µM) was 27%.

In turn, “TCATTTCCACCTTTGCC (sugars e3 k2 d7 k2 e3, PS)” had a target mRNA inhibition (HepG2, 3 µM) of 57%.

For the sequence “TCCAACATGCCTCTCTT (sugars e3 k2 d7 k2 e3, PS)”, the target mRNA inhibition (HepG2, 3 µM) turned out to be 0%.

Consider “TCCATGCAGGCCTTCAG (sugars e3 k2 d7 k2 e3, PS)”, for which the target mRNA inhibition (HepG2, 3 µM) stood at 18%.

For “TCCATTACTTTCCTTCT (sugars e3 k2 d7 k2 e3, PS)”, the target mRNA inhibition (HepG2, 3 µM) came to 18%.

As to “TCCTTCTGCTCGAAATT (sugars e3 k2 d7 k2 e3, PS)”, under “HepG2, 3 µM”, the target mRNA inhibition worked out at 14%.

Regarding “TCCTTTGGCCCACCGTGTTT (sugars e5 d10 e5, PS)”, where the note is “HepG2, 5 µM”, the target mRNA inhibition is 30% and 23%.

Consider “TCTACAGCTAGCAGGAT (sugars e2 k2 d8 k2 e3, PS)”, for which the target mRNA inhibition (HepG2, 0.1875 µM) is 23%; the target mRNA inhibition (HepG2, 0.75 µM) was found to be 51%; the target mRNA inhibition (HepG2, 3 µM) was determined as 74%; the target mRNA inhibition (HepG2, 4 µM) was determined as 75%; the target mRNA inhibition (HepG2, 12 µM) came to 91%.

For the setting “HepG2, 3 µM”, “TCTACAGCTAGCAGGAT (sugars e3 k2 d7 k2 e3, PS)” gave a target mRNA inhibition of 51%.

“TCTGACAAGTTTAATAC (sugars e2 k2 d9 k2 e2, PS)” showed a target mRNA inhibition (HepG2, 5 µM) of 20%.

Turning to “TCTGCTCGAAATTGATG (sugars e3 k2 d7 k2 e3, PS)”, for the setting “HepG2, 3 µM”, the target mRNA inhibition amounted to 34%.

Take “TCTGCTTTTTCATGGAC (sugars e3 k2 d7 k2 e3, PS)”: the target mRNA inhibition (HepG2, 3 µM) turned out to be 55%.

For the sequence “TCTGTGATTTAAGTCTG (sugars e2 k2 d9 k2 e2, PS)”, the target mRNA inhibition (HepG2, 5 µM) was determined as 49%.

“TCTGTGATTTAAGTCTGGCA (sugars e5 d10 e5, PS)” displayed a target mRNA inhibition (HepG2, 5 µM) of 44%.

Turning to “TCTTCCAAGTGATCATA (sugars e2 k2 d8 k2 e3, PS)”, the target mRNA inhibition (HepG2, 5 µM) worked out at 33%.

As for “TCTTCCAAGTGATCATA (sugars e2 k2 d9 k2 e2, PS)”, the target mRNA inhibition (HepG2, 5 µM) turned out to be 43%.

As to “TCTTTGTCAGCAGTCACATT (sugars e5 d10 e5, PS)”, for the setting “HepG2, 5 µM”, the target mRNA inhibition is 20% and 11%.

In turn, “TCTTTTAATAGCCTCAT (sugars e2 k2 d8 k2 e3, PS)” yielded a target mRNA inhibition (HepG2, 5 µM) of 52%.

Regarding “TCTTTTAATAGCCTCAT (sugars e2 k2 d9 k2 e2, PS)”, the target mRNA inhibition (HepG2, 5 µM) came out at 56%.

As for “TGAACATGGAATCCATG (sugars e3 k2 d7 k2 e3, PS)”, under “HepG2, 3 µM”, the target mRNA inhibition was found to be 2%.

For “TGACAAGTTTAATACCC (sugars e2 k2 d9 k2 e2, PS)”, the target mRNA inhibition (HepG2, 5 µM) was 52%.

Consider “TGACAAGTTTAATACCC (sugars e3 k2 d7 k2 e3, PS)”, for which the target mRNA inhibition (HepG2, 3 µM) was 27%.

For the setting “HepG2, 5 µM”, “TGATCATAAATCAGTTT (sugars e2 k2 d8 k2 e3, PS)” gave a target mRNA inhibition of 49%.

Sequence “TGCAACGGAAACCCCAGACG (sugars e5 d10 e5, PS)” displayed a target mRNA inhibition (HepG2, 4 µM) of 21%.

In the case of “TGCCATACAGGGTTTTT (sugars e2 k2 d8 k2 e3, PS)”, the target mRNA inhibition (HepG2, 5 µM) stood at 21%.

For the sequence “TGCCTCTCTTCATCCTT (sugars e3 k2 d7 k2 e3, PS)”, the target mRNA inhibition (HepG2, 3 µM) was 6%.

“TGCTTTTTCATGGACCA (sugars e3 k2 d7 k2 e3, PS)” had a target mRNA inhibition (HepG2, 3 µM) of 51%.
